Data taken from ChEMBL document CHEMBL5385924, “Stereoselective Synthesis of Xylodonin A and 22-Hydroxyxylodonin A and Discovery of Analogues with Cytotoxic Activity” (J Nat Prod, 2024).
pIC50: −log10 of the molar value. Active and inactive are the calls of the source. No cut-off for these calls is given here.

Key:
HepG2 [1] = assay: Antiproliferative activity against human HepG2 cells assessed as reduction in cell viability measured after 48 hrs by CCK8 assay; assay type: functional, cell-based; conditions: HepG2, 48 h
Pseudomonas aeruginosa = assay: Antibacterial activity against Pseudomonas aeruginosa assessed as inhibition of bacterial growth; assay type: functional, organism-based
Proteus vulgaris = assay: Antibacterial activity against Proteus vulgaris assessed as inhibition of bacterial growth; assay type: functional, organism-based
Staphylococcus aureus = assay: Antibacterial activity against Staphylococcus aureus assessed as inhibition of bacterial growth; assay type: functional, organism-based
Salmonella typhimurium = assay: Antibacterial activity against Salmonella typhimurium assessed as inhibition of bacterial growth; assay type: functional, organism-based; conditions: Salmonella enterica subsp. enterica serovar Typhimurium
Candida albicans = assay: Antifungal activity against Candida albicans assessed as inhibition of fungal growth; assay type: functional, organism-based
[2] = test system: Mycolicibacterium smegmatis; assay: Antibacterial activity against Mycobacterium smegmatis assessed as inhibition of bacterial growth; assay type: functional, organism-based
Escherichia coli = assay: Antibacterial activity against Escherichia coli assessed as inhibition of bacterial growth; assay type: functional, organism-based
[3] = Cytotoxicity against human HL7702 cells assessed as reduction in cell viability measured after 48 hrs by CCK8 assay; assay type: toxicity, cell-based; conditions: HL7702 (L02) cells
[4] = Selectivity index, ratio of IC50 for cytotoxicity against human HL7702 cells to IC50 for antiproliferative activity against human HepG2 cells; assay type: toxicity, cell-based; conditions: HL7702 cells versus HepG2 cells, read-out: Ratio IC50
HepG2 [5] = assay: Induction of apoptosis in human HepG2 cells assessed as viable cells at 20 uM measured after 48 hrs by AnnexinV-FITC/PI staining based flow cytometry (reference value: 95.88%); assay type: functional; conditions: read-out: Activity
HepG2 [6] = assay: Induction of apoptosis in human HepG2 cells assessed as necrotic cells at 20 uM measured after 48 hrs by AnnexinV-FITC/PI staining based flow cytometry (reference value: 0.19%); assay type: functional
HepG2 [7] = assay: Inhibition of colony formation in human HepG2 cells assessed as relative colony formation area at 15 uM treated every 6 hrs for 24 hrs followed by culturing in fresh medium for 7 days by Giemsa staining based analysis; assay type: functional; parameters: scale not given: the % may be the effect or the level left
HepG2 [8] = assay: Induction of apoptosis in human HepG2 cells assessed as viable cells at 10 uM measured after 48 hrs by AnnexinV-FITC/PI staining based flow cytometry (reference value: 95.88%); assay type: functional; conditions: read-out: Activity
HepG2 [9] = assay: Inhibition of colony formation in human HepG2 cells assessed as relative colony formation area at 20 uM treated every 6 hrs for 24 hrs followed by culturing in fresh medium for 7 days by Giemsa staining based analysis; assay type: functional; parameters: scale not given: the % may be the effect or the level left
HepG2 [10] = assay: Induction of apoptosis in human HepG2 cells assessed as early apoptotic cells at 10 uM measured after 48 hrs by AnnexinV-FITC/PI staining based flow cytometry (reference value: 1.21%); assay type: functional
HepG2 [11] = assay: Induction of apoptosis in human HepG2 cells assessed as late apoptotic cells at 10 uM measured after 48 hrs by AnnexinV-FITC/PI staining based flow cytometry (reference value: 2.73%); assay type: functional
HepG2 [12] = assay: Inhibition of colony formation in human HepG2 cells assessed as relative colony formation area at 10 uM treated every 6 hrs for 24 hrs followed by culturing in fresh medium for 7 days by Giemsa staining based analysis; assay type: functional; parameters: scale not given: the % may be the effect or the level left
HepG2 [13] = assay: Inhibition of colony formation in human HepG2 cells assessed as relative colony formation area at 5 uM treated every 6 hrs for 24 hrs followed by culturing in fresh medium for 7 days by Giemsa staining based analysis; assay type: functional; parameters: scale not given: the % may be the effect or the level left
HepG2 [14] = assay: Antimetastatic activity against human HepG2 cells assessed as inhibition of cell migration measured after 12 to 24 hrs by scratch wound healing assay; assay type: functional, cell-based; conditions: time 12-24 hrs
HepG2 [15] = assay: Induction of apoptosis in human HepG2 cells assessed as late apoptotic cells at 20 uM measured after 48 hrs by AnnexinV-FITC/PI staining based flow cytometry (reference value: 2.73%); assay type: functional
HepG2 [16] = assay: Induction of apoptosis in human HepG2 cells assessed as necrotic cells at 10 uM measured after 48 hrs by AnnexinV-FITC/PI staining based flow cytometry (reference value: 0.19%); assay type: functional
HepG2 [17] = assay: Induction of apoptosis in human HepG2 cells assessed as early apoptotic cells at 20 uM measured after 48 hrs by AnnexinV-FITC/PI staining based flow cytometry (reference value: 1.21%); assay type: functional

Row | SMILES | pIC50 (HepG2 [1]) | Activity (Pseudomonas aeruginosa) | Activity (Proteus vulgaris) | Activity (Staphylococcus aureus) | Activity (Salmonella typhimurium) | Activity (Candida albicans) | Activity [2] | Activity (Escherichia coli) | IC50 at 48 h [3] [µM] | selectivity ratio [4] | also measured
1 | CC1(C)CCC[C@]2(C)C3=C(COC3=O)C[C@H](O)[C@@H]12 | < 4.30 | inactive | inactive | inactive | inactive | inactive | inactive | inactive |  |  | 
2 | CC1(C)CCC[C@]2(C)C3=C(COC3=O)C[C@H](OC(=O)/C=C/c3ccc(O)cc3)[C@@H]12 | 4.85 | inactive | inactive | inactive | inactive | inactive | inactive | inactive | > 100 | > 6.9 | 
3 | CC1(C)CCC[C@]2(C)C3=C(COC3=O)C[C@H](OC(=O)/C=C/c3ccc(C(F)(F)F)cc3)[C@@H]12 | < 4.30 | inactive | inactive | inactive | inactive | inactive | inactive | inactive |  |  | 
4 | CC1(C)CCC[C@]2(C)C3=C(COC3=O)C[C@H](OC(=O)/C=C/c3ccccc3F)[C@@H]12 | 4.65 | inactive | inactive | inactive | inactive | inactive | inactive | inactive | > 100 | > 4.5 | 
5 | CC1(C)CCC[C@]2(C)C3=C(COC3=O)C[C@H](OC(=O)/C=C/c3ccc(Cl)cc3)[C@@H]12 | < 4.30 | inactive | inactive | inactive | inactive | inactive | inactive | inactive |  |  | 
6 | COc1cc([C@@H]2c3cc4c(cc3[C@@H](O[C@@H]3O[C@@H]5CO[C@@H](C)O[C@H]5[C@H](O)[C@H]3O)[C@H]3COC(=O)[C@H]23)OCO4)cc(OC)c1O [ETOPOSIDE] | 5.23 |  |  |  |  |  |  |  | 49.6 | 8.4 | 
7 | CC1(C)CCC[C@]2(C)C3=C(COC3=O)C[C@H](OC(=O)/C=C/c3ccccc3)[C@@H]12 | < 4.30 | inactive | inactive | inactive | inactive | inactive | inactive | inactive |  |  | 
8 | CC(=O)Oc1ccc(/C=C/C(=O)O[C@H]2CC3=C(C(=O)OC3)[C@@]3(C)CCCC(C)(C)[C@H]23)cc1 | 5.06 | inactive | inactive | inactive | inactive | inactive | inactive | inactive | > 100 | > 11.4 | viability at 20 µM (HepG2 [5]): 79.2%; Activity (HepG2 [6]): 0.2%; Activity (HepG2 [7]): 5.9%; viability at 10 µM (HepG2 [8]): 91%; Activity (HepG2 [9]): 2.3%; Activity (HepG2 [10]): 1.73%; Activity (HepG2 [11]): 6.96%; Activity (HepG2 [12]): 8.1%; Activity (HepG2 [13]): 11.2%; Activity (HepG2 [14]): Active; Activity (HepG2 [15]): 6.23%; Activity (HepG2 [16]): 0.27%; Activity (HepG2 [17]): 14.41%
